Laboratory results published in patent US20250214967A1, “FAK DEGRADERS, PHARMACEUTICAL COMPOSITIONS, AND THERAPEUTIC APPLICATIONS” (Berrybio (Shanghai) Limited, priority 2022, published 2025).

Biological target: FAK (Homo sapiens (Human), UniProt Q05397)
Experiment: FAK Degradation Assay (Western blot, FAK/GAPDH)
Format: cell-based
Conditions: MDA-MB-231 cells, 24 h treatment, Western blot normalized to DMSO; for DC50: read-out: DC50 (half-maximal degradation concentration), FAK Degradation; for Dmax: read-out: Dmax (maximal degradation), FAK Degradation
Experimental: H2122 (4×10^5), MIA PaCa-2 (6×10s), or MDA-MB-231 cells (6×10^5) per well were seeded into a 6-well plate containing 2 mL of complete culture medium (RPMI-1640 for H2122 and MDA-MB-231, and DMEM/F12 for MIA PaCa-2, supplemented with 10% FBS and 1% penicillin/streptomycin). The cells were cultured overnight at 37° C. in the presence of 5% C02 before treated with a compound in a series of concentrations for 24 h. The cells were then washed with ice-cold Dulbecco's phosphate-buffered saline (DPBS). A radioimmuno-precipitation assay (RIPA) buffer was added to lyse the cells on ice for 20 min. The cells were then scrapped using cell scraper and collected in a 1.5 mL tube, which was centrifuged at 14,000 g and 4° C. for 15 min. The supernatant was collected and the total protein concentration of each sample was determined using a PIERCE™ BCA protein assay kit. The supernatant was diluted to the same protein concentration with the RIPA buffer after the BCA assay. Samples of the same protein amount were mixed with 4× a lithium dodecyl sulfate (LDS) sample buffer and boiled at 95° C. for 5 min. The denatured samples were used for electrophoresis.
For Western blot, the same volume containing ˜50 μg protein for each sample was loaded onto 4-12% Bis-Tris protein gel. The gel was run at 80 V for 0.5 h and at 120 V for 1 h. When the electrophoresis was completed, an IBLOT™ 2 gel transfer device was used to transfer FAK and GAPDH proteins at 20 V for 7 min. All the membranes were blocked in 5% nonfat dry milk in a TBST buffer at RT for 1 h and then incubated with primary antibodies (anti-FAK and anti-GAPDH) in a TBST buffer containing 5% BSA at 4° C. overnight. The membranes were washed with the TBST buffer and then incubated with secondary antibodies (goat anti-rabbit IgG H&L for FAK and goat anti-mouse IgG H&L for GAPDH) at room temperature for 1 h. Blots were visualized using an IMAGEQUANT™ LAS-4000. The chemiluminescent signals from ECL™ Western blotting reagents were captured. The band integrated intensity from each 16-bit blot image was used for quantitation. The FAK/GAPDH signal ratios of each sample were normalized using DMSO as a control and the normalized data for each compound were used to obtain its half-maximal degradation concentration (DC50) and maximal degradation (Dmax).

FAK, sequence (Q05397 whole entry): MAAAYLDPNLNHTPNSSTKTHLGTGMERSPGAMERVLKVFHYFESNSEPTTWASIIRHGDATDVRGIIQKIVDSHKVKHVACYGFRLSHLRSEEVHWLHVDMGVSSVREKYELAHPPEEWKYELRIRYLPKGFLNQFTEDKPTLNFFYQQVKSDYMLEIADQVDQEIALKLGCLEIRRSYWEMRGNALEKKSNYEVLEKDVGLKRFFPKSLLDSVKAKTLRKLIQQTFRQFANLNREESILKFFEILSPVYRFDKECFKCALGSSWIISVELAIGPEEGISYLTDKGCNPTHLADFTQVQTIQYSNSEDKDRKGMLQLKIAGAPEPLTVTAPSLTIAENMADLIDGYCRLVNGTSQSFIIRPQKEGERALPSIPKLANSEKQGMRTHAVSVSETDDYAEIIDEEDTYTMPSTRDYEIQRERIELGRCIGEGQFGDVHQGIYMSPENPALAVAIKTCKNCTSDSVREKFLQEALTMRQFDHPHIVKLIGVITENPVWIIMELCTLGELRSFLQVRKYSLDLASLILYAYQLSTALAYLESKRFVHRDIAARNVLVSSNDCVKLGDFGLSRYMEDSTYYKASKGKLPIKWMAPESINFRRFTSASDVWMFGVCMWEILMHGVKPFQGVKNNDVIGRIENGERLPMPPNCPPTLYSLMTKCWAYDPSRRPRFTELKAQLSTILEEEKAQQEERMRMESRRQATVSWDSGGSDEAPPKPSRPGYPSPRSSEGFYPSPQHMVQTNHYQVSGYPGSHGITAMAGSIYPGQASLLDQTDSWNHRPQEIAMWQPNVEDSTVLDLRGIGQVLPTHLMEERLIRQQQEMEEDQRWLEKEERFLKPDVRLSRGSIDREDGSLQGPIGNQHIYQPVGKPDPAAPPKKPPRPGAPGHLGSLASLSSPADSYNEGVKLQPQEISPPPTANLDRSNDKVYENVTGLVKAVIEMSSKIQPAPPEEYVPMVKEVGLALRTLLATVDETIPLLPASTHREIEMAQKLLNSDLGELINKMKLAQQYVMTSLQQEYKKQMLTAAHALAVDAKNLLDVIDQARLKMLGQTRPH

Row | SMILES | DC50 [nM] | Dmax [%]
1 | COc1cc(CN[C@@H]2CCN(c3ccc4c(c3)C(=O)N(C3CCC(=O)NC3=O)C4=O)C2)c(F)cc1Nc1ncc(C(F)(F)F)c(Oc2cccc3c2C(=O)N(C)C3)n1 (stereo partly drawn) [Compound A58, 2-(2,6-Dioxopiperidin-3-yl)-5-((R)-3-((2-fluoro-5-methoxy-4-((4-((2-methyl-3-oxoisoindolin-4-yl)oxy)-5-(trifluoromethyl)pyrimidin-2-yl)amino)benzyl)amino)pyrrolidin-1-yl)isoindoline-1,3-dione] | 0.9 | 84
2 | CN(c1ccccc1CNc1cc(Nc2ccc(CN3CC(Oc4ccc5c(c4)C(=O)N(C4CCC(=O)NC4=O)C5=O)C3)cc2)ncc1C(F)(F)F)S(C)(=O)=O (stereo not shown) [Compound A18, N-(2-(((2-((4-((3-((2-(2,6-Dioxopiperidin-3-yl)-1,3-dioxoisoindolin-5-yl)oxy)-azetidin-1-yl)methyl)phenyl)amino)-5-(trifluoromethyl)pyridin-4-yl)amino)methyl)phenyl)-N-methylmethanesulfonamide] | 21 | 84
3 | CNC(=O)c1ccccc1Nc1nc(Nc2ccc(CCN3CCN(c4ccc5c(c4)C(=O)N(C4CCC(=O)NC4=O)C5=O)CC3)c(F)c2)ncc1C(F)(F)F (stereo not shown) [Compound A44, 2-((2-((4-(2-(4-(2-(2,6-dioxopiperidin-3-yl)-1,3-dioxoisoindolin-5-yl)piperazin-1-yl)ethyl)-3-fluorophenyl)amino)-5-(trifluoromethyl)pyrimidin-4-yl)amino)-N-methylbenzamide] | 0.96 | 92
4 | CNC(=O)c1ccccc1Nc1nc(Nc2ccc(CNC3CCN(c4ccc5c(c4)C(=O)N(C4CCC(=O)NC4=O)C5=O)CC3)c(F)c2)ncc1C(F)(F)F (stereo not shown) [Compound A37, 2-((2-((4-(((1-(2-(2,6-dioxopiperidin-3-yl)-1,3-dioxoisoindolin-5-yl)piperidin-4-yl)-amino)methyl)-3-fluorophenyl)amino)-5-(trifluoromethyl)pyrimidin-4-yl)amino)-N-methyl-benzamide] | 0.86 | 94
5 | CN(c1nccnc1CNc1nc(Nc2cccc(C(=O)N3CC(OC4CCN(c5ccc6c(c5)C(=O)N(C5CCC(=O)NC5=O)C6=O)CC4)C3)c2)ncc1C(F)(F)F)S(C)(=O)=O (stereo not shown) [Compound A13, N-(3-(((2-((3-(3-((1-(2-(2,6-dioxopiperidin-3-yl)-1,3-dioxoisoindolin-5-yl)-piperidin-4-yl)oxy)azetidine-1-carbonyl)phenyl)amino)-5-(trifluoromethyl)pyrimidin-4-yl)-amino)methyl)pyrazin-2-yl)-N-methylmethanesulfonamide] | 1.4 | 94
6 | CN(c1ccccc1CNc1cc(Nc2ccc(C(=O)NC3CCN(c4ccc5c(c4)C(=O)N(C4CCC(=O)NC4=O)C5=O)CC3)cc2)ncc1C(F)(F)F)S(C)(=O)=O (stereo not shown) [Compound A15, N-(1-(2-(2,6-dioxopiperidin-3-yl)-1,3-dioxoisoindolin-5-yl)piperidin-4-yl)-4-((4-((2-(N-methylmethylsulfonamido)benzyl)amino)-5-(trifluoromethyl)pyridin-2-yl)amino)-benzamide] | 2.6 | 93
7 | CN(c1cccc(CNc2cc(Nc3ccc(CNC4CCN(c5ccc6c(c5)C(=O)N(C5CCC(=O)NC5=O)C6=O)CC4)cc3)ncc2C(F)(F)F)c1)S(C)(=O)=O (stereo not shown) [Compound A16, N-(3-(((2-((4-(((1-(2-(2,6-Dioxopiperidin-3-yl)-1,3-dioxoisoindolin-5-yl)-piperidin-4-yl)amino)methyl)phenyl)amino)-5-(trifluoromethyl)pyridin-4-yl)amino)methyl)-phenyl)-N-methylmethanesulfonamide] | 2.7 | 93
8 | CN(c1nccnc1CNc1nc(Nc2cccc(C(=O)N3CCC(N4CCN(c5ccc6c(c5)C(=O)N(C5CCC(=O)NC5=O)C6=O)CC4)CC3)c2)ncc1C(F)(F)F)S(C)(=O)=O (stereo not shown) [Compound A11, N-(3-(((2-((3-(4-(4-(2-(2,6-Dioxopiperidin-3-yl)-1,3-dioxoisoindolin-5-yl)-piperazin-1-yl)piperidine-1-carbonyl)phenyl)amino)-5-(trifluoromethyl)pyrimidin-4-yl)amino)-methyl)pyrazin-2-yl)-N-methylmethanesulfonamide] | 0.83 | 94
9 | CN(c1nccnc1CNc1nc(Nc2ccc(CN[C@@H]3CCN(c4ccc5c(c4)C(=O)N(C4CCC(=O)NC4=O)C5=O)C[C@@H]3F)cc2)ncc1C(F)(F)F)S(C)(=O)=O (stereo partly drawn) [Compound A36, N-(3-(((2-((4-((((3S,4R)-1-(2-(2,6-Dioxopiperidin-3-yl)-1,3-dioxoisoindolin-5-yl)-3-fluoropiperidin-4-yl)amino)methyl)phenyl)amino)-5-(trifluoromethyl)pyrimidin-4-yl)amino)-methyl)pyrazin-2-yl)-N-methylmethanesulfonamide] | 0.83 | 94
10 | CS(=O)(=O)c1ccccc1Nc1cc(Nc2ccc(CNC3CCN(c4ccc5c(c4)C(=O)N(C4CCC(=O)NC4=O)C5=O)CC3)cc2)ncc1C(F)(F)F (stereo not shown) [Compound A34, 2-(2,6-Dioxopiperidin-3-yl)-5-(4-((4-((4-((2-(methylsulfonyl)phenyl)amino)-5-(trifluoromethyl)pyridin-2-yl)amino)benzyl)amino)piperidin-1-yl)isoindoline-1,3-dione] | 25 | 83
11 | CN(c1nccnc1CNc1nc(Nc2ccc(OCCCCCCOc3ccc4c(c3)C(=O)N(C3CCC(=O)NC3=O)C4=O)cc2)ncc1C(F)(F)F)S(C)(=O)=O (stereo not shown) [Compound A8, N-(3-(((2-((4-((6-((2-(2,6-Dioxopiperidin-3-yl)-1,3-dioxoisoindolin-5-yl)oxy)-hexyl)oxy)phenyl)amino)-5-(trifluoromethyl)pyrimidin-4-yl)amino)methyl)pyrazin-2-yl)-N-methylmethanesulfonamide] | 4.1 | 100
12 | CS(=O)(=O)c1cccc(CNc2nc(Nc3ccc(CNC4CCN(c5ccc6c(c5)C(=O)N(C5CCC(=O)NC5=O)C6=O)CC4)cc3)ncc2C(F)(F)F)c1 (stereo not shown) [Compound A24, 2-(2,6-Dioxopiperidin-3-yl)-5-(4-((4-((4-((3-(methylsulfonyl)benzyl)amino)-5-(trifluoromethyl)pyrimidin-2-yl)amino)benzyl)amino)piperidin-1-yl)isoindoline-1,3-dione] | 0.7 | 87
13 | CN(c1ccccc1CNc1cc(Nc2ccc(CNC3CN(c4ccc5c(c4)C(=O)N(C4CCC(=O)NC4=O)C5=O)C3)cc2)ncc1C(F)(F)F)S(C)(=O)=O (stereo not shown) [Compound A19, N-(2-(((2-((4-(((1-(2-(2,6-Dioxopiperidin-3-yl)-1,3-dioxoisoindolin-5-yl)azetidin-3-yl)amino)methyl)phenyl)amino)-5-(trifluoromethyl)pyridin-4-yl)amino)methyl)phenyl)-N-methylmethanesulfonamide] | 2.8 | 96
14 | CNC(=O)c1ccccc1Nc1cc(Nc2ccc(CN[C@@H]3CCN(c4ccc5c(c4)C(=O)N(C4CCC(=O)NC4=O)C5=O)C3)cc2)ncc1C(F)(F)F (stereo partly drawn) [Compound A32, 2-((2-((4-((((3R)-1-(2-(2,6-Dioxopiperidin-3-yl)-1,3-dioxoisoindolin-5-yl)-pyrrolidin-3-yl)amino)methyl)phenyl)amino)-5-(trifluoromethyl)pyridin-4-yl)amino)-N-methylbenzamide] | 0.79 | 91
